Key:
[1] = target: T1, Serine/threonine-protein kinase haspin (Homo sapiens) (UniProt Q8TF76); assay: Inhibition of recombinant human haspin kinase domain (470 to 798 residues) extracted from bacteria using histone H3 (1 to 21) peptide as substrate assessed as residual activity at 10 uM incubated for 30 mins in presence of ATP by ADP-Glo kinase assay relative to control
T1 sequence (whole entry): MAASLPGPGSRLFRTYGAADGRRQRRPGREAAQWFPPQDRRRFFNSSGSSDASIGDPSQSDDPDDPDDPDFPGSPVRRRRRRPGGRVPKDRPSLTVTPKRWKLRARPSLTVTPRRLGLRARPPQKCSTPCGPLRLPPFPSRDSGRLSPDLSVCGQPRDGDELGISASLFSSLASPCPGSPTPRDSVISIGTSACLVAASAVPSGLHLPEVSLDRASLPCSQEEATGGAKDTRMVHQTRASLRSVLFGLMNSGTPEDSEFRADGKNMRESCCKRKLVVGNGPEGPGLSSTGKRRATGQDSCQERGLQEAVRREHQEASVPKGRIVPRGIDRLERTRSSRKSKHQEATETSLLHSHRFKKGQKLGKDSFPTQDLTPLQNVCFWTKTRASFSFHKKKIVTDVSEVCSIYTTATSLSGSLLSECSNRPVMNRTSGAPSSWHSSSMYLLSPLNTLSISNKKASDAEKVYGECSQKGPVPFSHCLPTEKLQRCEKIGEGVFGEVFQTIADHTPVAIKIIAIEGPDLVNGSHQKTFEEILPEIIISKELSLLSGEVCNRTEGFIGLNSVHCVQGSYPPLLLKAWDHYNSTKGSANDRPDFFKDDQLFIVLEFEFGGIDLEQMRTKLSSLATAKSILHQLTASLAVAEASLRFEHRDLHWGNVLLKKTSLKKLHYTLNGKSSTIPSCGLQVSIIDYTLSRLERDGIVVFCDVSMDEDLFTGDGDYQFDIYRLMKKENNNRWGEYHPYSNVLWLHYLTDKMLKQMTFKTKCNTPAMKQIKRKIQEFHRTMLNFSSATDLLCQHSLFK

[2] = target: T1, Serine/threonine-protein kinase haspin (Homo sapiens); assay: Inhibition of recombinant human haspin kinase domain (470 to 798 residues) extracted from bacteria using histone H3 (1 to 21) peptide as substrate assessed as residual activity at 1 uM incubated for 30 mins in presence of ATP by ADP-Glo kinase assay relative to control
[3] = target: T2, Serine/threonine-protein kinase haspin (Homo sapiens, UniProt Q8TF76); assay: Inhibition of recombinant human haspin kinase domain (470 to 798 residues) extracted from bacteria using histone H3 (1 to 21) peptide as substrate incubated for 30 mins in presence of ATP by ADP-Glo kinase assay
T2 sequence (Q8TF76 whole entry): T1 sequence (whole entry)

[4] = target: Dual specificity tyrosine-phosphorylation-regulated kinase 1A (Rattus norvegicus) (UniProt Q63470); assay: Inhibition of recombinant rat DYRK1A kinase domain (1 to 499 residues) extracted from bacteria using KKISGRLSPIMTEQ as substrate assessed as enzyme residual activity at 10 uM incubated for 30 mins in presence of ATP by ADP-Glo kinase assay relative to control
[5] = target: Dual specificity protein kinase CLK1 (Mus musculus) (UniProt P22518); assay: Inhibition of recombinant mouse CLK1 extracted from bacteria using GRSRSRSRSRSR as substrate assessed as enzyme residual activity at 10 uM incubated for 30 mins in presence of ATP by ADP-Glo kinase assay relative to control
[6] = target: Dual specificity protein kinase CLK1 (Mus musculus) (UniProt P22518); assay: Inhibition of recombinant mouse CLK1 extracted from bacteria using GRSRSRSRSRSR as substrate assessed as enzyme residual activity at 1 uM incubated for 30 mins in presence of ATP by ADP-Glo kinase assay relative to control
[7] = target: Dual specificity tyrosine-phosphorylation-regulated kinase 1A (Rattus norvegicus) (UniProt Q63470); assay: Inhibition of recombinant rat DYRK1A kinase domain (1 to 499 residues) extracted from bacteria using KKISGRLSPIMTEQ as substrate assessed as enzyme residual activity at 1 uM incubated for 30 mins in presence of ATP by ADP-Glo kinase assay relative to control
[8] = Inhibition of recombinant human CDK9/Cyclin T extracted from baculovirus infected Sf9 cells using YSPTSPSYSPTSPSYSPTSPSKKKK as substrate assessed as enzyme residual activity at 10 uM incubated for 30 mins in presence of ATP by ADP-Glo kinase assay relative to control
[9] = Inhibition of recombinant human CDK9/Cyclin T extracted from baculovirus infected Sf9 cells using YSPTSPSYSPTSPSYSPTSPSKKKK as substrate assessed as enzyme residual activity at 1 uM incubated for 30 mins in presence of ATP by ADP-Glo kinase assay relative to control
[10] = target: Glycogen synthase kinase-3 beta (Homo sapiens) (UniProt P49841); assay: Inhibition of recombinant human GSK3beta extracted from baculovirus infected Sf9 cells using GS-1 (YRRAAVPPSPSLSRHSSPHQSpEDEEE) peptide as substrate assessed as enzyme residual activity at 10 uM incubated for 30 mins in presence of ATP by ADP-Glo kinase assay relative to control
[11] = target: Glycogen synthase kinase-3 beta (Homo sapiens) (UniProt P49841); assay: Inhibition of recombinant human GSK3beta extracted from baculovirus infected Sf9 cells using GS-1 (YRRAAVPPSPSLSRHSSPHQSpEDEEE) peptide as substrate assessed as enzyme residual activity at 1 uM incubated for 30 mins in presence of ATP by ADP-Glo kinase assay relative to control
[12] = target: Casein kinase I isoform epsilon (Homo sapiens) (UniProt P49674); assay: Inhibition of recombinant human CK1epsilon extracted from baculovirus infected Sf9 cells using RRKHAAIGSpAYSITA peptide as substrate assessed as enzyme residual activity at 10 uM incubated for 30 mins in presence of ATP by ADP-Glo kinase assay relative to control
[13] = target: Casein kinase I isoform epsilon (Homo sapiens) (UniProt P49674); assay: Inhibition of recombinant human CK1epsilon extracted from baculovirus infected Sf9 cells using RRKHAAIGSpAYSITA peptide as substrate assessed as enzyme residual activity at 1 uM incubated for 30 mins in presence of ATP by ADP-Glo kinase assay relative to control
[14] = target: T3, Cyclin-dependent kinase 5/CDK5 activator 1 (Homo sapiens) (UniProt Q00535+Q15078); assay: Inhibition of recombinant human CDK5/p25 extracted from bacteria using histone H1 as substrate assessed as enzyme residual activity at 10 uM incubated for 30 mins in presence of ATP by ADP-Glo kinase assay relative to control; type: protein-complex assay
[15] = target: T3, Cyclin-dependent kinase 5/CDK5 activator 1 (Homo sapiens); assay: Inhibition of recombinant human CDK5/p25 extracted from bacteria using histone H1 as substrate assessed as enzyme residual activity at 1 uM incubated for 30 mins in presence of ATP by ADP-Glo kinase assay relative to control; type: protein-complex assay
[16] = target: T4, Serine/threonine-protein kinase pim-1 (Homo sapiens, UniProt P11309); assay: Inhibition of recombinant human PIM-1 extracted from bacteria using histone H1 as substrate assessed as enzyme residual activity at 10 uM incubated for 30 mins in presence of ATP by ADP-Glo kinase assay relative to control
[17] = target: T4, Serine/threonine-protein kinase pim-1; assay: Inhibition of recombinant human PIM-1 extracted from bacteria using histone H1 as substrate assessed as enzyme residual activity at 1 uM incubated for 30 mins in presence of ATP by ADP-Glo kinase assay relative to control

T4 sequence (P11309 whole entry, looked up): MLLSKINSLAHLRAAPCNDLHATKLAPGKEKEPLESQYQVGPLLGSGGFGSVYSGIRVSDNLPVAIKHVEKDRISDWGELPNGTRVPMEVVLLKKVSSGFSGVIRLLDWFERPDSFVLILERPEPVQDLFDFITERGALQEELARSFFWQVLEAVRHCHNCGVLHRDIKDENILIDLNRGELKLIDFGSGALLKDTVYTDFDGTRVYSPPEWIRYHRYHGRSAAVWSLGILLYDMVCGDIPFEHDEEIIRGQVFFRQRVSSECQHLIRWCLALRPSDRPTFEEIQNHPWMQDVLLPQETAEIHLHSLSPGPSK
Chain of Casein kinase I isoform epsilon (Homo sapiens) (P49674 whole entry, looked up, canonical isoform): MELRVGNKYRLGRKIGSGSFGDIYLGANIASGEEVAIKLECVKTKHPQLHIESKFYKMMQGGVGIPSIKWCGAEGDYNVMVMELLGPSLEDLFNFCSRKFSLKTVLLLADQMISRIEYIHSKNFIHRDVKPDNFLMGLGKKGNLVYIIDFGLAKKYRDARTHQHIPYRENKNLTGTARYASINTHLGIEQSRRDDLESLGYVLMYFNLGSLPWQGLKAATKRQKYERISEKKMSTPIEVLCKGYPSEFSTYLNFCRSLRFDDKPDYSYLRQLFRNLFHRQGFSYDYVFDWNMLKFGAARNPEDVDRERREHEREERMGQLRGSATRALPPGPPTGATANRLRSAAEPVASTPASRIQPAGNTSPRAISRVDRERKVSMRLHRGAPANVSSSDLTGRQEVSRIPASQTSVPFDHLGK
T3 sequence (Q00535 whole entry): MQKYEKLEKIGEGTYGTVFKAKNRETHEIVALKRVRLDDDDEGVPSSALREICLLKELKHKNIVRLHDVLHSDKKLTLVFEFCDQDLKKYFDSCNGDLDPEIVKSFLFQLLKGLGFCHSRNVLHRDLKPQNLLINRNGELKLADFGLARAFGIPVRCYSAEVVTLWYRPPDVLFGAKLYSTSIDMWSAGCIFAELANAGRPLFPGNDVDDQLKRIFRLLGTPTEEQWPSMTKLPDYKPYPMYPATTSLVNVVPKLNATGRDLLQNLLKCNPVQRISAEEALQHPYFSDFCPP
T3 sequence (Q15078 99-307 partner limits assumed): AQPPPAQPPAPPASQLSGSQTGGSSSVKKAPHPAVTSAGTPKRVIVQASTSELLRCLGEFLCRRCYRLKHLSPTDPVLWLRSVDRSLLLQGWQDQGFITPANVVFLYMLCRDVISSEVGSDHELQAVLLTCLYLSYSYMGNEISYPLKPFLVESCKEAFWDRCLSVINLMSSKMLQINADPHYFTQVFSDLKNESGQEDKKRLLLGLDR
Chain of Dual specificity protein kinase CLK1 (Mus musculus) (P22518 whole entry, looked up, the tested form may be a part): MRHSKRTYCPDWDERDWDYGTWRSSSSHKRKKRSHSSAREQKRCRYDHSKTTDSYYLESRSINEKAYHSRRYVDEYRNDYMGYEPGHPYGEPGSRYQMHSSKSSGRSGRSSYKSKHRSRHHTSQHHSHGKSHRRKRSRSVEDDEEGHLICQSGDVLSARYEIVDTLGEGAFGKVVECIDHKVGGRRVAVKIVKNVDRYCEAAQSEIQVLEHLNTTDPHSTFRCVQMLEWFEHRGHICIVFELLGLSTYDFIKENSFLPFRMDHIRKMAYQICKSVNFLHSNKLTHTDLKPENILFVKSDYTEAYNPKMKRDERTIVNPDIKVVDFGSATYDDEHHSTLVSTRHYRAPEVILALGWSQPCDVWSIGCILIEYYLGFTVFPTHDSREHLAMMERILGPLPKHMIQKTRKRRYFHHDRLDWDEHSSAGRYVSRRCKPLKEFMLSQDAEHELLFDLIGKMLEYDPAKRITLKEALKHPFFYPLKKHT
Chain of Glycogen synthase kinase-3 beta (Homo sapiens) (P49841 whole entry, looked up, canonical isoform): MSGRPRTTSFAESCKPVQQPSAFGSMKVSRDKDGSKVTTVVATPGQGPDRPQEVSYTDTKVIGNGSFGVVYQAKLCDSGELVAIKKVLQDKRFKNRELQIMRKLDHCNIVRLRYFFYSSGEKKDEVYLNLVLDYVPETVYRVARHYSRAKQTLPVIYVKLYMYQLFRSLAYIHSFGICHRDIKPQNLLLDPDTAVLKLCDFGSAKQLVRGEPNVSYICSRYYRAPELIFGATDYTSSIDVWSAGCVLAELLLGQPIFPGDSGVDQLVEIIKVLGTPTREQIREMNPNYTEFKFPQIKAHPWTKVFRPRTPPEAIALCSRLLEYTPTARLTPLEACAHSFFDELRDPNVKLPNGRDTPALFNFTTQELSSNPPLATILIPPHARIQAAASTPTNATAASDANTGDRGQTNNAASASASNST

Row | SMILES | Activity [1] | Activity [2] | IC50 [3] | Activity [4] | Activity [5] | Activity [6] | Activity [7] | Activity [8] | Activity [9] | Activity [10] | Activity [11] | Activity [12] | Activity [13] | Activity [14] | Activity [15] | Activity [16] | Activity [17]
1 | O=C1CCC(N2C(=O)c3cccc(NCCOCCOCCOCCn4cc(I)c5cc6ccncc6cc54)c3C2=O)C(=O)N1 (stereo not given) | 100% | 80% |  |  |  |  |  |  |  |  |  |  |  |  |  |  | 
2 | c1cc2c(ccc3cc[nH]c32)cn1 | 9% | 39% | 258 nM | 31% | 43% | 80% | 50% | 45% | 59% | 76% | 82% | 94% | 95% | 63% | 77% | 38% | 64%
3 | O=C1CCC(N2C(=O)c3cccc(NCCOCCOCCOCCn4cc(Cl)c5cc6ccncc6cc54)c3C2=O)C(=O)N1 (stereo not given) | 90% | 78% |  |  |  |  |  |  |  |  |  |  |  |  |  |  | 
4 | Cn1cc(-c2ccccn2)c2cc3ccncc3cc21 | 7% | 25% | 173 nM | 23% | 36% | 73% | 63% | 49% | 77% | 53% | 67% | 89% | 100% | 100% | 100% | 38% | 74%
5 | c1cc2cc3c(cc2cn1)NCC3 | 28% | 66% |  | 66% | 80% | 98% | 68% | 62% | 75% | 80% | 78% | 96% | 92% | 88% | 89% | 70% | 65%
6 | O=C1CCC(N2C(=O)c3cccc(NCCOCCOCCOCCNC(=O)c4c[nH]c5cc6cnccc6cc45)c3C2=O)C(=O)N1 (stereo not given) | 60% | 74% |  | 84% | 97% | 97% | 90% | 86% | 100% | 85% | 82% | 99% | 100% | 100% | 100% | 75% | 67%
7 | O=C1CCC(N2C(=O)c3cccc(NCCOCCOCCOCCn4cc(Br)c5cc6ccncc6cc54)c3C2=O)C(=O)N1 (stereo not given) | 86% | 98% |  |  |  |  |  |  |  |  |  |  |  |  |  |  | 
8 | O=C1CCC(N2C(=O)c3cccc(NCCOCCOCCOCCn4cc(-c5cccnc5)c5cc6ccncc6cc54)c3C2=O)C(=O)N1 (stereo not given) | 71% | 70% |  | 74% | 79% | 90% | 65% | 81% | 91% | 74% | 86% | 91% | 100% | 100% | 100% | 66% | 61%
9 | O=C1CCC(N2C(=O)c3cccc(NCCOCCOCCOCCn4cc(-c5ccncc5)c5cc6ccncc6cc54)c3C2=O)C(=O)N1 (stereo not given) | 71% | 67% |  | 64% | 89% | 100% | 90% | 96% | 97% | 81% | 84% | 84% | 99% | 100% | 100% | 64% | 74%
10 | O=C1CCC(N2C(=O)c3cccc(NCCOCCOCCOCCn4ccc5cc6ccncc6cc54)c3C2=O)C(=O)N1 (stereo not given) | 83% | 95% |  | 87% | 94% | 100% | 100% | 88% | 91% | 81% | 93% | 97% | 100% | 100% | 100% | 86% | 95%

— ChEMBL document CHEMBL6182870, “Synthesis and biological activity of 1H-pyrrolo[3,2-g]isoquinolines as Haspin kinase inhibitors” (Bioorg Med Chem, 2025)
